Experimental data as given in PubChem BioAssay AID248 (DTP/NCI, 2004).
Values joined by “and” are separate entries in the source; they are usually repeats but may differ in a detail not shown here. Identical values can stand only once. Inconclusive results and toxic doses are left out. Cut-off read from the data, not from the text of the source: active = T/C of 150% or more; inactive = T/C below 125%.

Tested on: L1210 leukemia ip in BDF1 mice, survival T/C
Test: NCI In Vivo Anticancer Drug Screen. Data for tumor model L1210 Leukemia (intraperitoneal) in B6D2F1 (BDF1) mice
Details: endpoint: mean survival time, higher = longer survival
Outline: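 Each compound was tested against a transplantable tumor grown in mice. The endpoint was survival, with treated animals benchmarked against vehicle controls as a simple ratio.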

[1] = dose: 50.0 mg/kg/injection, schedule: Q01DX001 (ip), vehicle: Klucel (hydroxypropylcellulose) (HPC)
[2] = dose: 100.0 mg/kg/injection, schedule: Q01DX001 (ip), vehicle: Klucel (hydroxypropylcellulose) (HPC)
[3] = dose: 200.0 mg/kg/injection, schedule: Q01DX001 (ip), vehicle: Klucel (hydroxypropylcellulose) (HPC)
[4] = dose: 100.0 mg/kg/injection, schedule: Q04DX003 (ip), vehicle: saline
[5] = dose: 200.0 mg/kg/injection, schedule: Q04DX003 (ip), vehicle: saline
[6] = dose: 400.0 mg/kg/injection, schedule: Q04DX003 (ip), vehicle: saline
[7] = dose: 100.0 mg/kg/injection, schedule: Q04DX002 (ip), vehicle: Klucel (hydroxypropylcellulose) (HPC)
[8] = dose: 200.0 mg/kg/injection, schedule: Q04DX002 (ip), vehicle: Klucel (hydroxypropylcellulose) (HPC)
[9] = dose: 400.0 mg/kg/injection, schedule: Q04DX002 (ip), vehicle: Klucel (hydroxypropylcellulose) (HPC)
[10] = dose: 100.0 mg/kg/injection, schedule: Q01DX009 (ip), vehicle: saline with Tween-80
[11] = dose: 200.0 mg/kg/injection, schedule: Q01DX009 (ip), vehicle: saline with Tween-80
[12] = dose: 400.0 mg/kg/injection, schedule: Q04DX002 (ip), vehicle: saline with Tween-80

Measured: T/C

CCOC(=O)NC1=C(N2CC2C)C(=O)C(NC(=O)OCC)=C(N2CC2C)C1=O (configuration not stated)
inactive: dose: 0.93 mg/kg/injection, schedule: Q01DX009 (ip), vehicle: Klucel (hydroxypropylcellulose) (HPC) 94 % of control and 100 % of control | dose: 1.87 mg/kg/injection, schedule: Q01DX009 (ip), vehicle: Klucel (hydroxypropylcellulose) (HPC) 97 % of control and 107 % of control | dose: 3.12 mg/kg/injection, schedule: Q04DX003 (ip), vehicle: Klucel (hydroxypropylcellulose) (HPC) 106 % of control | dose: 3.75 mg/kg/injection, schedule: Q01DX009 (ip), vehicle: Klucel (hydroxypropylcellulose) (HPC) 98 % of control and 100 % of control | dose: 6.25 mg/kg/injection, schedule: Q04DX003 (ip), vehicle: Klucel (hydroxypropylcellulose) (HPC) 95 % of control | dose: 7.5 mg/kg/injection, schedule: Q01DX009 (ip), vehicle: Klucel (hydroxypropylcellulose) (HPC) 102 % of control and 91 % of control | dose: 12.5 mg/kg/injection, schedule: Q04DX003 (ip), vehicle: Klucel (hydroxypropylcellulose) (HPC) 106 % of control | dose: 15.0 mg/kg/injection, schedule: Q01DX009 (ip), vehicle: Klucel (hydroxypropylcellulose) (HPC) 91 % of control | dose: 25.0 mg/kg/injection, schedule: Q04DX003 (ip), vehicle: Klucel (hydroxypropylcellulose) (HPC) 112 % of control | dose: 50.0 mg/kg/injection, schedule: Q04DX003 (ip), vehicle: Klucel (hydroxypropylcellulose) (HPC) 110 % of control

COc1ccccc1-n1c(=O)c(N=Nc2ccccc2C)c(O)n(-c2ccccc2Cl)c1=S
inactive: [1] 107 % of control | [2] 102 % of control | [3] 110 % of control

NC(=O)NOCC(N)C(=O)O (configuration not stated)
inactive: [4] 102 % of control | [5] 102 % of control | [6] 97 % of control

CC(C)[CH2][Sn](=[O])[CH2]C(C)C
inactive: dose: 6.25 mg/kg/injection, schedule: Q04DX002 (ip), vehicle: saline with Tween-80 108 % of control | dose: 12.5 mg/kg/injection, schedule: Q04DX002 (ip), vehicle: saline with Tween-80 96 % of control

CN(C)Cc1c[nH]c2c1S/C(=C/c1ccccc1)C2=O
inactive: [2] 105 % of control | [3] 96 % of control | dose: 400.0 mg/kg/injection, schedule: Q01DX001 (ip), vehicle: Klucel (hydroxypropylcellulose) (HPC) 100 % of control

Cc1ccc(OC(=O)NC(C)(C)C)cc1
inactive: [7] 105 % of control | [8] 109 % of control | [9] 105 % of control

CC(=O)c1ccc(Oc2ccccc2)cc1
inactive: [7] 104 % of control | [8] 93 % of control | [9] 110 % of control

O=[N+]([O-])CC1c2ccccc2Nc2ccccc21
inactive: dose: 50.0 mg/kg/injection, schedule: Q01DX009 (ip), vehicle: saline with Tween-80 93 % of control | [10] 107 % of control | [11] 100 % of control

CCCNC(=O)c1ccc(NC(=O)Nc2ccc(C3=NCCN3)cc2)cc1NC(=O)Nc1ccc(C2=NCCN2)cc1
inactive: dose: 25.0 mg/kg/injection, schedule: Q01DX Z (ip), vehicle: carboxymethylcellulose (CMC) 113 % of control | dose: 50.0 mg/kg/injection, schedule: Q01DX Z (ip), vehicle: carboxymethylcellulose (CMC) 117 % of control | dose: 100.0 mg/kg/injection, schedule: Q01DX Z (ip), vehicle: carboxymethylcellulose (CMC) 108 % of control and 113 % of control

c1cc[c]([Sn]([c]2ccccc2)[c]2ccccc2)cc1.c1ccc([Si](c2ccccc2)c2ccccc2)cc1
inactive: dose: 64.0 mg/kg/injection, schedule: Q04DX002 (ip), vehicle: saline with Tween-80 86 % of control | dose: 160.0 mg/kg/injection, schedule: Q04DX002 (ip), vehicle: saline with Tween-80 86 % of control | [12] 86 % of control

Cc1cc2c(cc1C)C1(c3ccccc3)OC1(c1ccccc1)C2=O (configuration not stated)
inactive: dose: 100.0 mg/kg/injection, schedule: Q01DX001 (ip), vehicle: saline with Tween-80 95 % of control | dose: 200.0 mg/kg/injection, schedule: Q01DX001 (ip), vehicle: saline with Tween-80 88 % of control | dose: 400.0 mg/kg/injection, schedule: Q01DX001 (ip), vehicle: saline with Tween-80 92 % of control

CCCCCCCCCCCCCCCOc1cccc(OCCCCCCCCCCCCCCC)c1
inactive: [1] 92 % of control | [2] 92 % of control | [3] 92 % of control

c1ccc2c(c1)NC(OC1CCCCC1)S2 (configuration not stated)
inactive: dose: 100.0 mg/kg/injection, schedule: Q04DX002 (ip), vehicle: saline with Tween-80 101 % of control | dose: 200.0 mg/kg/injection, schedule: Q04DX002 (ip), vehicle: saline with Tween-80 90 % of control | [12] 90 % of control

COc1ccccc1/C=C/c1ccnc2ccccc12
inactive: dose: 100.0 mg/kg/injection, schedule: Q01DX001 (ip), vehicle: saline 101 % of control | [4] 97 % of control | dose: 200.0 mg/kg/injection, schedule: Q01DX001 (ip), vehicle: saline 102 % of control | [5] 100 % of control | dose: 400.0 mg/kg/injection, schedule: Q01DX001 (ip), vehicle: saline 98 % of control | [6] 93 % of control

c1ccc2c(c1)NCCN2
inactive: dose: 12.5 mg/kg/injection, schedule: Q01DX001 (ip), vehicle: saline 97 % of control | dose: 25.0 mg/kg/injection, schedule: Q01DX001 (ip), vehicle: saline 94 % of control

O=c1ccn(CCC(CO)CO)c(=O)[nH]1
inactive: [4] 101 % of control | [5] 106 % of control | [6] 102 % of control

CN(C)c1ccc(/C=C/c2cc(N(C)C)nc3ccccc23)cc1
inactive: dose: 25.0 mg/kg/injection, schedule: Q01DX015 (ip), vehicle: carboxymethylcellulose (CMC) 109 % of control | dose: 50.0 mg/kg/injection, schedule: Q01DX015 (ip), vehicle: carboxymethylcellulose (CMC) 105 % of control | dose: 75.0 mg/kg/injection, schedule: Q01DX015 (ip), vehicle: carboxymethylcellulose (CMC) 101 % of control

O=C(Cn1ccc(=O)[nH]c1=O)c1cccs1
inactive: [10] 104 % of control | dose: 100.0 mg/kg/injection, schedule: Q04DX003 (ip), vehicle: saline with Tween-80 98 % of control | [11] 96 % of control | dose: 200.0 mg/kg/injection, schedule: Q04DX003 (ip), vehicle: saline with Tween-80 96 % of control | dose: 400.0 mg/kg/injection, schedule: Q01DX009 (ip), vehicle: saline with Tween-80 96 % of control | dose: 400.0 mg/kg/injection, schedule: Q04DX003 (ip), vehicle: saline with Tween-80 95 % of control

O=C(O)CCC(NC(=O)/C=C/c1ccc([N+](=O)[O-])cc1)C(=O)O (configuration not stated)
inactive: [7] 107 % of control | [8] 88 % of control | [9] 91 % of control

CC(CN(C)C)CN1c2ccccc2Sc2ccccc21 (configuration not stated)
inactive: dose: 3.12 mg/kg/injection, schedule: Q04DX003 (ip), vehicle: saline with Tween-80 105 % of control | dose: 3.12 mg/kg/injection, schedule: Q04DX003 (ip), vehicle: saline 96 % of control | dose: 6.12 mg/kg/injection, schedule: Q04DX003 (ip), vehicle: saline with Tween-80 101 % of control | dose: 6.25 mg/kg/injection, schedule: Q04DX003 (ip), vehicle: saline 100 % of control and 104 % of control | dose: 12.5 mg/kg/injection, schedule: Q04DX003 (ip), vehicle: saline with Tween-80 105 % of control | dose: 12.5 mg/kg/injection, schedule: Q04DX003 (ip), vehicle: saline 102 % of control and 113 % of control | dose: 25.0 mg/kg/injection, schedule: Q04DX003 (ip), vehicle: saline with Tween-80 103 % of control | dose: 25.0 mg/kg/injection, schedule: Q04DX003 (ip), vehicle: saline 102 % of control | dose: 50.0 mg/kg/injection, schedule: Q04DX003 (ip), vehicle: saline with Tween-80 120 % of control
